Measurements taken from patent US10385057B2, “Pyrazole compounds and methods of making and using same” (Lundbeck La Jolla Research Center, Inc., priority 2015, dated 2019).

Legend:
FAAH = target: T1, FAAH (Mus musculus, UniProt O08914); assay: In vitro competitive activity-based protein profiling, mouse FAAH; format: biochemical; details: for inhibition at 1 µM: read-out: FAAH % inh. 1 μM (mouse)
T1 construct: mouse brain membrane fraction or cell lysates for mouse assays; from tissue
T1 sequence (O08914 1-579): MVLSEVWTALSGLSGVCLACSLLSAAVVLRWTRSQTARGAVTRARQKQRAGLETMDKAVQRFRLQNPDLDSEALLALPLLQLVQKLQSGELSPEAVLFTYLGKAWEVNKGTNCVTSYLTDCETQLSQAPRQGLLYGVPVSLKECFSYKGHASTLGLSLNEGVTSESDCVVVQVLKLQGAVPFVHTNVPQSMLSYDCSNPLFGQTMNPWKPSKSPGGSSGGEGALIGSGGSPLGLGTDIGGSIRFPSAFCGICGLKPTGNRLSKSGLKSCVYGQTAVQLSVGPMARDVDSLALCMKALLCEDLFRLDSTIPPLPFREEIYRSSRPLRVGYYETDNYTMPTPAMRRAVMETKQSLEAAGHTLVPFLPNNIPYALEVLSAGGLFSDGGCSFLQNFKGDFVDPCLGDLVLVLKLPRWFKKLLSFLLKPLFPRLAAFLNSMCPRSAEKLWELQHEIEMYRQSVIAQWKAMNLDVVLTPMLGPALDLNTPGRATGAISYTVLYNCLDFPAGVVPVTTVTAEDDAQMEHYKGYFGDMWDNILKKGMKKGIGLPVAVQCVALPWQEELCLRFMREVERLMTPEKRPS
Summary of the method: (§1)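 Activity measured as fluorescent gel-band intensity of MAGL and FAAH after SDS-PAGE. Before labelling with FP-Rh or HT-01 (30 min, 37 °C), proteomes at 1.0 mg/mL (mouse brain membrane or lysates; human prefrontal cortex or cell membranes) were exposed to varying inhibitor concentrations for 30 min at 37 °C.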

MAGL = target: T2, MAGL (Mus musculus, UniProt O35678); assay: In vitro competitive activity-based protein profiling, mouse MAGL; format: biochemical; details: for inhibition at 1 µM: read-out: MAGL % inh. 1 μM (mouse)
T2 construct: mouse brain membrane fraction or cell lysates for mouse assays; from tissue
T2 sequence (O35678 1-303): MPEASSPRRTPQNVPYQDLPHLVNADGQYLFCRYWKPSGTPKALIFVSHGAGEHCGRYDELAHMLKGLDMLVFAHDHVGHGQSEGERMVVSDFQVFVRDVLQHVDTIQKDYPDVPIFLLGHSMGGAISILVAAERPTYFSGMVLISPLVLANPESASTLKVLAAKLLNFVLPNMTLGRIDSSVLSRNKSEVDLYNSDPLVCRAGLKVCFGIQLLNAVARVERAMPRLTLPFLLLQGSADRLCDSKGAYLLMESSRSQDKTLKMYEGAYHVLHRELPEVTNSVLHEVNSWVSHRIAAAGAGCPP
Summary of the method: as §1

Row | SMILES | IC50 (FAAH) [µM] | inhibition at 1 µM (FAAH) [%] | IC50 (MAGL) [µM] | inhibition at 1 µM (MAGL) [%]
1 | Cc1cc(N2CCOCC2)ccc1CN1CC2CN(C(=O)n3cc(Cl)cn3)CC2C1 (stereo not drawn) [Example 131, (4-chloro-1H-pyrazol-1-yl)(5-(2-methyl-4-morpholinobenzyl)hexahydropyrrolo[3,4-c]pyrrol-2(1H)-yl)methanone] | ≤ 0.1 | ≥ 75 | ≤ 0.1 | ≥ 75
2 | O=C(N1CCC2(CCN(Cc3ccc(N4CCCC4)cc3)C2)C1)n1cc(Cl)cn1 (stereo not drawn) [Example 134, (4-chloro-1H-pyrazol-1-yl)(7-(4-(pyrrolidin-1-yl)benzyl)-2,7-diazaspiro[4.4]nonan-2-yl)methanone] | ≤ 0.1 | ≥ 75 | 0.1 to 1 | ≥ 75
3 | O=C(N1CCC2(CCN(Cc3cccc(Oc4ccccc4)c3)C2)C1)n1cc(Cl)cn1 (stereo not drawn) [Example 135, (4-chloro-1H-pyrazol-1-yl)(7-(3-phenoxybenzyl)-2,7-diazaspiro[4.4]nonan-2-yl)methanone] | ≤ 0.1 | ≥ 75 | 0.1 to 1 | ≥ 75
4 | O=C(N1CCC2(CCN(Cc3ccc(N4CCOCC4)cc3)C2)C1)n1cc(Cl)cn1 (stereo not drawn) [Example 136, (4-chloro-1H-pyrazol-1-yl)(7-(4-morpholinobenzyl)-2,7-diazaspiro[4.4]nonan-2-yl)methanone] | 0.1 to 1 | ≥ 75 | 0.1 to 1 | ≥ 75
5 | O=C(N1CCC2(CCN(Cc3ccc(N4CCOCC4)cc3Cl)C2)C1)n1cc(Cl)cn1 (stereo not drawn) [Example 137, (4-chloro-1H-pyrazol-1-yl)(7-(2-chloro-4-morpholinobenzyl)-2,7-diazaspiro[4.4]nonan-2-yl)methanone] | ≤ 0.1 | ≥ 75 | ≤ 0.1 | ≥ 75
6 | Cc1cc(N2CCOCC2)ccc1CN1CCC2(CCN(C(=O)n3cc(Cl)cn3)C2)C1 (stereo not drawn) [Example 138, (4-chloro-1H-pyrazol-1-yl)(7-(2-methyl-4-morpholinobenzyl)-2,7-diazaspiro[4.4]nonan-2-yl)methanone] | ≤ 0.1 | ≥ 75 | 0.1 to 1 | ≥ 75
7 | Cc1cccc(CN2CC3CN(C(=O)n4cc(C(F)(F)F)cn4)CC3C2)c1 (stereo not drawn) [Example 141, (5-(3-methylbenzyl)hexahydropyrrolo[3,4-c]pyrrol-2(1H)-yl)(4-(trifluoromethyl)-1H-pyrazol-1-yl)methanone] | ≤ 0.1 | ≥ 75 | ≤ 0.1 | ≥ 75
8 | COc1cccc(CN2CC3CN(C(=O)n4cc(C(F)(F)F)cn4)CC3C2)c1 (stereo not drawn) [Example 142, (5-(3-methoxybenzyl)hexahydropyrrolo[3,4-c]pyrrol-2(1H)-yl)(4-(trifluoromethyl)-1H-pyrazol-1-yl)methanone] | ≤ 0.1 | ≥ 75 | ≤ 0.1 | ≥ 75
9 | O=C(N1CC2CN(Cc3cccc(C(F)(F)F)c3)CC2C1)n1cc(C(F)(F)F)cn1 (stereo not drawn) [Example 143, (4-(trifluoromethyl)-1H-pyrazol-1-yl)(5-(3-(trifluoromethyl)benzyl)hexahydropyrrolo[3,4-c]pyrrol-2(1H)-yl)methanone] | ≤ 0.1 | ≥ 75 | ≤ 0.1 | ≥ 75
10 | O=C(N1CC2CN(Cc3cccc(N4CCCC4)c3)CC2C1)n1cc(C(F)(F)F)cn1 (stereo not drawn) [Example 144, (5-(3-(pyrrolidin-1-yl)benzyl)hexahydropyrrolo[3,4-c]pyrrol-2(1H)-yl)(4-(trifluoromethyl)-1H-pyrazol-1-yl)methanone] | ≤ 0.1 | ≥ 75 | ≤ 0.1 | ≥ 75
11 | O=C(N1CC2CN(Cc3cccc(N4CCOCC4)c3)CC2C1)n1cc(C(F)(F)F)cn1 (stereo not drawn) [Example 145, (5-(3-morpholinobenzyl)hexahydropyrrolo[3,4-c]pyrrol-2(1H)-yl)(4-(trifluoromethyl)-1H-pyrazol-1-yl)methanone] | ≤ 0.1 | ≥ 75 | ≤ 0.1 | ≥ 75
12 | O=C(N1CC2CN(Cc3ccc(F)cc3)CC2C1)n1cc(C(F)(F)F)cn1 (stereo not drawn) [Example 146, (5-(4-fluorobenzyl)hexahydropyrrolo[3,4-c]pyrrol-2(1H)-yl)(4-(trifluoromethyl)-1H-pyrazol-1-yl)methanone] | ≤ 0.1 | ≥ 75 | ≤ 0.1 | ≥ 75
